Assay results as given in US10899737B2, “Piperazine carbamates and methods of making and using same” (Lundbeck La Jolla Research Center, Inc., priority 2016, dated 2021).

Tests used:
Format in all cases: biochemical
[1] = biological target: T1, MAGL (Homo sapiens, UniProt Q99685); experiment: In vitro competitive activity-based protein profiling (human), MAGL; conditions: for inhibition at 1 µM: 1 μM inhibitor, human proteome, 30 min preincubation at 37° C, read-out: MAGL % inh. 1 μM (human); for IC50: human PC3
T1 construct: Proteomes (human prefrontal cortex or cell membrane fractions); from tissue
T1 sequence (Q99685 1-303): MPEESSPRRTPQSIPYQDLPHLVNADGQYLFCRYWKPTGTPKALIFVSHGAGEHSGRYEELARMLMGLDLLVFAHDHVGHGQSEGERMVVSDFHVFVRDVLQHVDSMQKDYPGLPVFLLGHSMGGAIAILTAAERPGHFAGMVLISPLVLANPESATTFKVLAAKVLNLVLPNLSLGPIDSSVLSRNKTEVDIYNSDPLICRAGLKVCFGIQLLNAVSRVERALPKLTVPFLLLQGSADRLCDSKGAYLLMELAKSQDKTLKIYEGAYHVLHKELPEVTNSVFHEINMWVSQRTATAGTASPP
Protocol: (§1) In Vitro Competitive Activity-Based Protein Profiling (Human).
(§2) Proteomes (human prefrontal cortex or cell membrane fractions) (50 μL, 1.0-2.0 mg/mL total protein concentration) were preincubated with varying concentrations of inhibitors at 37° C. After 30 min, FP-Rh or JW912 (1.0 μL, 50 μM in DMSO) was added and the mixture was incubated for another 30 min at room temperature. Reactions were quenched with SDS loading buffer (15 μL-4×) and run on SDS-PAGE. Following gel imaging, serine hydrolase activity was determined by measuring fluorescent intensity of gel bands corresponding to MAGL and ABHD6 using ImageJ 1.49 k software.

[2] = biological target: T2, ABHD6 (Homo sapiens, UniProt Q9BV23); experiment: In vitro competitive activity-based protein profiling (human), ABHD6; conditions: human PC3
T2 construct: Proteomes (human prefrontal cortex or cell membrane fractions); endogenous in cells; human prefrontal cortex
T2 sequence (Q9BV23 1-337): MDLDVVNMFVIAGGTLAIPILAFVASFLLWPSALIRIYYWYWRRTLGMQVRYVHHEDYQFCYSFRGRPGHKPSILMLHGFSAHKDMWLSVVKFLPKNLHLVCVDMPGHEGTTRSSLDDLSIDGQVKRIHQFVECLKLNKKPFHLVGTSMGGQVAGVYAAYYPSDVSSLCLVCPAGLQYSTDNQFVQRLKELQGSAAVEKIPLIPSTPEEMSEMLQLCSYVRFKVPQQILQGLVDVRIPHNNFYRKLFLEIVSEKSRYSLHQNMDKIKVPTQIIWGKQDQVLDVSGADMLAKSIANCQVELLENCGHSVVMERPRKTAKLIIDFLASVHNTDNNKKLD
Protocol: as §1, §2

[3] = biological target: T3, MAGL (Mus musculus, UniProt O35678); experiment: In vitro competitive activity-based protein profiling (mouse), MAGL; conditions: for inhibition at 1 µM: 1 μM inhibitor, mouse brain membrane fraction or cell lysates, read-out: MAGL % inh. 1 μM (mouse)
T3 construct: Proteomes (mouse brain membrane fraction or cell lysates); from tissue; host or cells: mouse brain membrane fraction or cell lysates
T3 sequence (O35678 1-303): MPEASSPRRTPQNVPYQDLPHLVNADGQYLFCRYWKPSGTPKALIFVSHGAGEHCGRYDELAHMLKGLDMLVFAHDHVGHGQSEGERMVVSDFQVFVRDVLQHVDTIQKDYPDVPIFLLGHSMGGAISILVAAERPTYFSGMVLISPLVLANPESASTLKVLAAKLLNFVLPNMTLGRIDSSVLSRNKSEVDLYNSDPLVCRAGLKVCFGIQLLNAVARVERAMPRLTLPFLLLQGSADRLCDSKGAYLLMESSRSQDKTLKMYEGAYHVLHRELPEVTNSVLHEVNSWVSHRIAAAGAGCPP
Protocol: (§3) In Vitro Competitive Activity-Based Protein Profiling (Mouse).
(§4) Proteomes (mouse brain membrane fraction or cell lysates) (50 μL, 1.0 mg/mL total protein concentration) were preincubated with varying concentrations of inhibitors at 37° C. After 30 min, FP-Rh (1.0 μL, 50 μM in DMSO) was added and the mixture was incubated for another 30 min at 37° C. Reactions were quenched with SDS loading buffer (50 μL-4×) and run on SDS-PAGE. Following gel imaging, serine hydrolase activity was determined by measuring fluorescent intensity of gel bands corresponding to MAGL and ABHD6 using ImageJ 1.49 k software. Data from this assay is shown in Table 1 (% inhibition at 1 μM).

[4] = biological target: T4, ABHD6 (Mus musculus, UniProt Q8R2Y0); experiment: In vitro competitive activity-based protein profiling (mouse), ABHD6; conditions: 1 μM inhibitor, mouse brain membrane fraction or cell lysates; read-out: ABHD6 % inh. 1 μM (mouse)
T4 construct: Proteomes (mouse brain membrane fraction or cell lysates); from tissue; host or cells: mouse brain membrane fraction or cell lysates
T4 sequence (Q8R2Y0 1-336): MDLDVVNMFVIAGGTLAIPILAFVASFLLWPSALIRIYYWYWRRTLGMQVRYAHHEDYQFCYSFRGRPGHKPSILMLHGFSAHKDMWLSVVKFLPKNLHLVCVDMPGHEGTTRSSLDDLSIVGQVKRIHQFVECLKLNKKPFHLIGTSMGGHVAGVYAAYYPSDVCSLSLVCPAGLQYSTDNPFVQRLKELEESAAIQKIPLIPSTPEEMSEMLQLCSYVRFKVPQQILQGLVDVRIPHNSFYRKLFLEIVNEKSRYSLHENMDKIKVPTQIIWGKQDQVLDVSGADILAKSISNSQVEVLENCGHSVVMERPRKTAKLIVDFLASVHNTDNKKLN
Protocol: as §3, §4

SMILES | inhibition at 1 µM [1] | IC50 [1] | IC50 [2] | inhibition at 1 µM [3] | inhibition at 1 µM [4] | IC50 ([3]; mouse proteome)
O=C(O)CN1CCN(C(=O)c2cc(C(F)(F)F)ccc2CN2CCN(C(=O)OC(C(F)(F)F)C(F)(F)F)CC2)CC1 [Example 28, 2-(4-(2-((4-(((1,1,1,3,3,3-Hexafluoropropan-2-yl)oxy)carbonyl)piperazin-1-yl)methyl)-5-(trifluoromethyl)benzoyl)piperazin-1-yl)acetic Acid] | ≥ 75% | 0.1 to 1 µM | 1 to 10 µM | ≥ 75% | 25 to 50% | –
O=C(O)C1CCN(Cc2cc(C(F)(F)F)ccc2CN2CCN(C(=O)OC(C(F)(F)F)C(F)(F)F)CC2)CC1 [Example 41, 1-(2-((4-(((1,1,1,3,3,3-hexafluoropropan-2-yl)oxy)carbonyl)piperazin-1-yl)methyl)-5-(trifluoromethyl)benzyl)piperidine-4-carboxylic acid] | ≥ 75% | 0.1 to 1 µM | 1 to 10 µM | ≥ 75% | 0 to 25% | –
O=C(O)CNC1CCN(c2cc(C(F)(F)F)ccc2CN2CCN(C(=O)OC(C(F)(F)F)C(F)(F)F)CC2)CC1 [Example 49, (1-(2-((4-(((1,1,1,3,3,3-hexafluoropropan-2-yl)oxy)carbonyl)piperazin-1-yl)methyl)-5-(trifluoromethyl)phenyl)piperidin-4-yl)glycine] | ≥ 75% | ≤ 0.1 µM | 1 to 10 µM | ≥ 75% | 0 to 25% | –
CCCC1(C(=O)O)CCN(c2cc(CN3CCN(C(=O)OC(C(F)(F)F)C(F)(F)F)CC3)cc(C(F)(F)F)c2)CC1 [Example 52, 1-(3-((4-(((1,1,1,3,3,3-hexafluoropropan-2-yl)oxy)carbonyl)piperazin-1-yl)methyl)-5-(trifluoromethyl)phenyl)-4-propylpiperidine-4-carboxylic acid] | ≥ 75% | ≤ 0.1 µM | 0.1 to 1 µM | ≥ 75% | ≥ 75% | –
CCC1(C(=O)O)CCN(c2cc(CN3CCN(C(=O)OC(C(F)(F)F)C(F)(F)F)CC3)cc(C(F)(F)F)c2)CC1 [Example 53, 4-ethyl-1-(3-((4-(((1,1,1,3,3,3-hexafluoropropan-2-yl)oxy)carbonyl)piperazin-1-yl)methyl)-5-(trifluoromethyl)phenyl)piperidine-4-carboxylic acid] | ≥ 75% | ≤ 0.1 µM | 0.1 to 1 µM | ≥ 75% | ≥ 75% | –
CC1(C(=O)O)CCCN(c2cc(CN3CCN(C(=O)OC(C(F)(F)F)C(F)(F)F)CC3)cc(C(F)(F)F)c2)C1 (centres unmarked) [Example 56, 1-(3-((4-(((1,1,1,3,3,3-hexafluoropropan-2-yl)oxy)carbonyl)piperazin-1-yl)methyl)-5-(trifluoromethyl)phenyl)-3-methylpiperidine-3-carboxylic acid] | ≥ 75% | ≤ 0.1 µM | ≤ 0.1 µM | ≥ 75% | 0 to 25% | –
O=C(O)CNCC1CCN(c2cc(C(F)(F)F)ccc2CN2CCN(C(=O)OC(C(F)(F)F)C(F)(F)F)CC2)CC1 [Example 61, ((1-(2-((4-(((1,1,1,3,3,3-hexafluoropropan-2-yl)oxy)carbonyl)piperazin-1-yl)methyl)-5-(trifluoromethyl)phenyl)piperidin-4-yl)methyl)glycine] | ≥ 75% | ≤ 0.1 µM | 1 to 10 µM | ≥ 75% | 0 to 25% | –
O=C(O)[C@@H]1CCCN(c2cc(CN3CCN(C(=O)OC(C(F)(F)F)C(F)(F)F)CC3)cc(C(F)(F)F)c2)C1 [Example 66, (R)-1-(3-((4-(((1,1,1,3,3,3-hexafluoropropan-2-yl)oxy)carbonyl)piperazin-1-yl)methyl)-5-(trifluoromethyl)phenyl)piperidine-3-carboxylic acid] | ≥ 75% | ≤ 0.1 µM | ≤ 0.1 µM | ≥ 75% | ≥ 75% | –

Results, then the compound that gave them:

inhibition at 1 µM [1] | IC50 [1] | IC50 [2] | inhibition at 1 µM [3] | inhibition at 1 µM [4] | IC50 ([3]; mouse proteome) | SMILES
≥ 75% | ≤ 0.1 µM | ≤ 0.1 µM | ≥ 75% | ≥ 75% | – | CC1(C(=O)O)CCN(c2cc(CN3CCN(C(=O)OC(C(F)(F)F)C(F)(F)F)CC3)cc(C(F)(F)F)c2)CC1 [Example 29, 1-(3-((4-(((1,1,1,3,3,3-Hexafluoropropan-2-yl)oxy)carbonyl)piperazin-1-yl)methyl)-5-(trifluoromethyl)phenyl)-4-methylpiperidine-4-carboxylic Acid]
≥ 75% | ≤ 0.1 µM | 0.1 to 1 µM | ≥ 75% | ≥ 75% | – | O=C(OC(C(F)(F)F)C(F)(F)F)N1CCN(Cc2cc(Cl)cc(C3(C(=O)O)CCCC3)c2)CC1 [Example 32, 1-(3-Chloro-5-((4-(((1,1,1,3,3,3-hexafluoropropan-2-yl)oxy)carbonyl)piperazin-1-yl)methyl)phenyl)cyclopentane-1-carboxylic Acid]
≥ 75% | ≤ 0.1 µM | 1 to 10 µM | ≥ 75% | 50 to 75% | – | O=C(O)CN1CCCC1C1CCN(c2cc(Cl)ccc2CN2CCN(C(=O)OC(C(F)(F)F)C(F)(F)F)CC2)CC1 (centres unmarked) [Example 34, 2-(2-(1-(5-Chloro-2-((4-(((1,1,1,3,3,3-hexafluoropropan-2-yl)oxy)carbonyl)piperazin-1-yl)methyl)phenyl)piperidin-4-yl)pyrrolidin-1-yl)acetic Acid]
≥ 75% | ≤ 0.1 µM | 0.1 to 1 µM | ≥ 75% | ≥ 75% | – | O=C(OC(C(F)(F)F)C(F)(F)F)N1CCN(Cc2ccc(C(F)(F)F)c(C3(C(=O)O)CCCC3)c2)CC1 [Example 37, 1-(5-((4-(((1,1,1,3,3,3-hexafluoropropan-2-yl)oxy)carbonyl)piperazin-1-yl)methyl)-2-(trifluoromethyl)phenyl)cyclopentane-1-carboxylic acid]
≥ 75% | ≤ 0.1 µM | 1 to 10 µM | ≥ 75% | 0 to 25% | ≤ 0.1 µM | O=C(O)CN1CC2(CCN(c3cc(Cl)ccc3CN3CCN(C(=O)OC(C(F)(F)F)C(F)(F)F)CC3)CC2)C1 [Example 47, 2-(7-(5-chloro-2-((4-(((1,1,1,3,3,3-hexafluoropropan-2-yl)oxy)carbonyl)piperazin-1-yl)methyl)phenyl)-2,7-diazaspiro[3.5]nonan-2-yl)acetic acid]
≥ 75% | ≤ 0.1 µM | 1 to 10 µM | ≥ 75% | 0 to 25% | – | O=C(O)CN1CCC2(C1)CN(c1cc(Cl)ccc1CN1CCN(C(=O)OC(C(F)(F)F)C(F)(F)F)CC1)C2 [Example 48, 2-(2-(5-chloro-2-((4-(((1,1,1,3,3,3-hexafluoropropan-2-yl)oxy)carbonyl)piperazin-1-yl)methyl)phenyl)-2,6-diazaspiro[3.4]octan-6-yl)acetic acid]
